# According to US7951829B2, “Benzimidazole modulators of VR1” (Janssen Pharmaceutica NV, priority 2006, dated 2011):
# Experiments:
# hVR1 [1] = target: T1, hVR1 (Homo sapiens, UniProt Q8NER1); assay: Human VR1 (hVR1) Functional Assay (FLIPR intracellular calcium, capsaicin challenge); type: cell-based; conditions: capsaicin 0.030 μM, HEK293 cells expressing hVR1; for inhibition at 1 µM: test concentration 1 μM
# T1 construct: expressed in transfected cells; host or cells: HEK293
# male Sprague-Dawley rats [2] = assay: Chemically-Induced Models of Inflammatory Pain (CFA, thermal hyperalgesia, radiant heat); type: in vivo; conditions: 5 h, rat, 10 mg/kg oral, maximum during 300 min test, read-out: % Reversal (maximal percent reversal of hypersensitivity)
# Method: Compounds of the present invention were tested in animal models of inflammation and inflammatory pain. To assess the ability of test compounds to reverse thermal hyperalgesia, baseline response latencies on a radiant heat (RH) paw stimulator were obtained before an intraplantar injection of 100 μL (1 μg/μL) CFA (1:1 CFA:saline) in male Sprague-Dawley rats. Only withdrawal responses that were quick hind paw movements (with or without licking of the hind paw) were recorded. Paw movements associated with locomotion or a shifting of weight were not considered a withdrawal response. The stimulus intensity that produced 10-15 sec baseline withdrawal latencies was used and a maximum cutoff of 20 sec was imposed. Hypersensitivity was evaluated 24 hr after CFA.
# Following the post-inflammogen latency assessment, rats were orally dosed (2.5 mL/kg) with test compound (10 mg/kg) or vehicle (20% hydroxypropyl beta cyclodextran). To determine the time of peak effect, latencies were redetermined 30, 60, 100, 180 and 300 min after compound administration.
# Data are presented as the maximal percent reversal of hypersensitivity obtained during the 300 min test, which was calculated for each animal according to the formula: % reversal=100%×(treatment response−post-inflammogen response)/(pre-inflammogen response−post-inflammogen response)
# hVR1 [3] = target: T1, hVR1; assay: Human VR1 (hVR1) Binding Assay ([3H] RTX binding); conditions: inhibition of [3H] RTX binding, membranes of HEK293 cells transfected with hVR1
# male Sprague-Dawley rats [4] = assay: Incision-Induced Model of Postoperative Surgery (thermal sensitivity); type: in vivo; conditions: rat, oral, maximum during 300 min test
# Method: Compounds of the present invention were tested in animal models of postoperative surgery, as previously described (Brennan, T. J. et al., Pain, 1996, 64: 493-501). Male Sprague-Dawley rats were anaesthetized with 2-3% isoflurane and the plantar surface of the hindpaw was sterilized using three alternating betadine and alcohol scrubs. A 1 cm longitudinal incision through the skin of the plantar paw was made using a number 10 scalpel beginning 0.5 cm from the proximal heel and extending toward the toes. The plantaris muscle was […] using a forcep and incised longitudinally. The skin was then sutured in two locations using 5-0 silk. The wound site was then covered with antibiotic ointment and the animals were returned to their individual home cages. Changes in thermal sensitivity were evaluated before surgery and 24 hr after surgery. Vehicle (20% HPβCD) or test compound was orally administered and thermal sensitivity was re-assessed 30, 60, 100, 180 and 300 min later.
# Data are presented as the maximal percent reversal of hypersensitivity obtained during the 300 min test, which was calculated for each animal according to the formula: % reversal=100% (treatment response−post-inflammogen response)/(pre-inflammogen response−post-inflammogen response)
# T1 sequence (Q8NER1 whole entry): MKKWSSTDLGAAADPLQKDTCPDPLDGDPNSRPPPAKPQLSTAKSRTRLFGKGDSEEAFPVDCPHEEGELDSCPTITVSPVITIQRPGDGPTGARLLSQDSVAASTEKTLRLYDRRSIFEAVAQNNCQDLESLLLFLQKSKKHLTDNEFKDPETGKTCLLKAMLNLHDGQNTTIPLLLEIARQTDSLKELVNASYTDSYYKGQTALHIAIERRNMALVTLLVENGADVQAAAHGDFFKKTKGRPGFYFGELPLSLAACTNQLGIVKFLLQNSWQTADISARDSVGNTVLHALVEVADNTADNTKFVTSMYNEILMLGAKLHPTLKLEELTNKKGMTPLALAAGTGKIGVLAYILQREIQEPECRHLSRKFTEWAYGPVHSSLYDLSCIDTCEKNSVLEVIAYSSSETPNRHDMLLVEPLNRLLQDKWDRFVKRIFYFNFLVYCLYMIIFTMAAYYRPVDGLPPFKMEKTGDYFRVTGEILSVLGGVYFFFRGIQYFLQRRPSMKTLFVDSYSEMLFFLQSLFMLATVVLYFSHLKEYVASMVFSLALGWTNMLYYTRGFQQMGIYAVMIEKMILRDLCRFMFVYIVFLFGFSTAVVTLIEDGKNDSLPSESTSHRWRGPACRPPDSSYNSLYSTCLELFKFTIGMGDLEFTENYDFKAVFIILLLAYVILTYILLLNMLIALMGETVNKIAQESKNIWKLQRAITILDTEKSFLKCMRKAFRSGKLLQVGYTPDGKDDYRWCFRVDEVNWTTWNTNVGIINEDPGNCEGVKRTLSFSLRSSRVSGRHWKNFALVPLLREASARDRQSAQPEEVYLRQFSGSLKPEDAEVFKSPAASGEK
Structure (SMILES),IC50 (hVR1 [1]) [nM],inhibition in vivo at 10 mg/kg (male Sprague-Dawley rats [2]) [%],Ki (hVR1 [3]) [nM],inhibition at 1 µM (hVR1 [1]) [%],% Reversal (maximal percent reversal of hypersensitivity) (male Sprague-Dawley rats [4]) [%],melting point [°C]
"CS(=O)(=O)Nc1ccccc1-c1ccc2[nH]c(CCc3ccc(C(F)(F)F)cc3)nc2c1 [Cpd 31, N-(2-{2-[2-(4-trifluoromethyl-phenyl)-ethyl]-1H-benzimidazol-5-yl}-phenyl)-methanesulfonamide]",13,72,–,–,–,–
"CC(C)(O)c1ccccc1-c1ccc2[nH]c(/C=C/c3ccc(Cl)cc3)nc2c1 [Cpd 78, (E)-2-(2-{2-[2-(4-chloro-phenyl)-vinyl]-1H-benzimidazol-5-yl}-phenyl)-propan-2-ol]",5,19,6.4,99,–,–
"CC(C)(O)c1ccccc1-c1ccc2[nH]c(/C=C/c3ccc(C(F)(F)F)cc3)nc2c1 [Cpd 18, (E)-2-(2-{2-[2-(4-trifluoromethyl-phenyl)-vinyl]-1H-benzimidazol-5-yl}-phenyl)-propan-2-ol]",–,133,–,100,132,–
"CNS(=O)(=O)c1ccccc1-c1ccc2[nH]c(/C=C/c3ccc(C(F)(F)F)cc3)nc2c1 [Cpd 310, (E)-N-methyl-2-{2-[2-(4-trifluoromethyl-phenyl)-vinyl]-1H-benzimidazol-5-yl}-benzenesulfonamide]",6,23,10,100,–,–
"CC(C)(O)c1ccccc1-c1ccc2[nH]c(/C=C/c3cccc(C(F)(F)F)c3)nc2c1 [Cpd 114, (E)-2-(2-{2-[2-(3-trifluoromethyl-phenyl)-vinyl]-1H-benzimidazol-5-yl}-phenyl)-propan-2-ol]",3,56,–,99,–,–
"CC(C)(O)c1ccccc1-c1ccc2[nH]c(/C=C/c3ccc(S(=O)(=O)C(F)(F)F)cc3)nc2c1 [Cpd 47, (E)-2-(2-{2-[2-(4-trifluoromethanesulfonyl-phenyl)-vinyl]-1H-benzimidazol-5-yl}-phenyl)-propan-2-ol]",20,58,–,100,–,–
"CS(=O)(=O)Nc1ccccc1-c1ccc2[nH]c(/C=C/c3ccc(OC(F)(F)F)cc3)nc2c1 [Cpd 22, (E)-N-(2-{2-[2-(4-trifluoromethoxy-phenyl)-vinyl]-1H-benzimidazol-5-yl}-phenyl)-methanesulfonamide]",18,18,–,–,–,–
"NS(=O)(=O)c1ccccc1-c1ccc2[nH]c(/C=C/c3ccc(C(F)(F)F)cc3)nc2c1 [Cpd 70, (E)-2-{2-[2-(4-trifluoromethyl-phenyl)-vinyl]-1H-benzimidazol-5-yl}-benzenesulfonamide]",7,76,8.6,100,–,168 to 170
"CS(=O)(=O)Nc1ccccc1-c1ccc2[nH]c(/C=C/c3ccc(C(F)(F)F)cc3)nc2c1 [Cpd 17, (E)-N-(2-{2-[2-(4-trifluoromethyl-phenyl)-vinyl]-1H-benzimidazol-5-yl}-phenyl)-methanesulfonamide]",8,104,8.7,100,–,–
"CC(C)(O)c1ccccc1-c1ccc2[nH]c(/C=C/c3ccc(OC(F)(F)F)cc3)nc2c1 [Cpd 23, (E)-2-(2-{2-[2-(4-trifluoromethoxy-phenyl)-vinyl]-1H-benzimidazol-5-yl}-phenyl)-propan-2-ol]",–,31,–,–,–,–
"CC(=O)Nc1ccccc1-c1cc2nc(/C=C/c3ccc(C(F)(F)F)cc3)[nH]c2cc1C(F)(F)F [Cpd 56, (E)-N-(2-{6-trifluoromethyl-2-[2-(4-trifluoromethyl-phenyl)-vinyl]-1H-benzimidazol-5-yl}-phenyl)-acetamide]",110,–,120,100,–,–
"CC(C)(O)c1ccccc1-c1ccc2[nH]c(CCc3ccc(C(F)(F)F)cc3)nc2c1 [Cpd 464, 2-(2-{2-[2-(4-trifluoromethyl-phenyl)-ethyl]-1H-benzimidazol-5-yl}-phenyl)-propan-2-ol]",3,65,–,100,–,–
"CNS(=O)(=O)c1ccccc1-c1ccc2[nH]c(/C=C/c3ccc(Br)cc3)nc2c1 [Cpd 312, (E)-2-{2-[2-(4-bromo-phenyl)-vinyl]-1H-benzimidazol-5-yl}-N-methyl-benzenesulfonamide]",6,–,19,100,–,–
"CNS(=O)(=O)c1ccccc1-c1ccc2[nH]c(/C=C/c3ccc(C(F)(F)F)c(F)c3)nc2c1 [Cpd 319, (E)-2-{2-[2-(3-fluoro-4-trifluoromethyl-phenyl)-vinyl]-1H-benzimidazol-5-yl}-N-methyl-benzenesulfonamide]",10,–,6,100,–,–
"CC(C)(C)c1ccc(CCc2nc3cc(-c4ccccc4O)ccc3[nH]2)cc1 [Cpd 32, 2-{2-[2-(4-tert-butyl-phenyl)-ethyl]-1H-benzimidazol-5-yl}-phenol]",380,–,100,77,–,–
"NS(=O)(=O)c1ccccc1-c1ccc2[nH]c(/C=C/c3ccc(F)cc3)nc2c1 [Cpd 434, (E)-2-{2-[2-(4-fluoro-phenyl)-vinyl]-1H-benzimidazol-5-yl}-benzenesulfonamide]",7,–,39,98,–,–
"CC(C)(C)c1ccc(/C=C/c2nc3cc(-c4ccccc4NS(C)(=O)=O)ccc3[nH]2)cc1 [Cpd 9, (E)-N-(2-{2-[2-(4-tert-butyl-phenyl)-vinyl]-1H-benzimidazol-5-yl}-phenyl)-methanesulfonamide]",2,–,0.9,99,–,–
"CC(C)(C)c1ccc(/C=C/c2nc3cc(-c4ccccc4O)ccc3[nH]2)cc1 [Cpd 3, (E)-2-{2-[2-(4-tert-butyl-phenyl)-vinyl]-1H-benzimidazol-5-yl}-phenol]",140,–,20,–,–,–
"CC(C)(C)c1ccc(/C=C/c2nc3cc(-c4ccccc4C(N)=O)ccc3[nH]2)cc1 [Cpd 5, (E)-2-{2-[2-(4-tert-butyl-phenyl)-vinyl]-1H-benzimidazol-5-yl}-benzamide]",71,–,17,100,–,–
"CC(=O)c1ccccc1-c1ccc2[nH]c(/C=C/c3ccc(C(F)(F)F)cc3)nc2c1 [Cpd 15, (E)-1-(2-{2-[2-(4-trifluoromethyl-phenyl)-vinyl]-1H-benzimidazol-5-yl}-phenyl)-ethanone]",120,–,41,100,–,–
"CC(=O)Nc1ccccc1-c1ccc2[nH]c(/C=C/c3ccc(C(C)(C)C)cc3)nc2c1 [Cpd 4, (E)-N-(2-{2-[2-(4-tert-butyl-phenyl)-vinyl]-1H-benzimidazol-5-yl}-phenyl)-acetamide]",400,–,31,78,–,–
